According to PMC3973950, “Synthesis of 5-arylidine amino-1,3,4-thiadiazol-2-[(N-substituted benzyol)]sulphonamides endowed with potent antioxidants and anticancer activity induces growth inhibition in HEK293, BT474 and NCI-H226 cells” (Medicinal Chemistry Research, 2013):

Columns and labels:
[1] = test system: BT474 (breast cancer cell line); experiment: In vitro cytotoxicity by MTT assay, BT474; type: cell-based; details: Homo sapiens, 72 h, read-out: % cytotoxicity (100 − % cell survival) of BT474 cell line; for cytotoxicity at 0.005 µM: BT-474, 0.005 μM; for cytotoxicity at 0.015 µM: BT-474, 0.015 μM; for cytotoxicity at 0.045 µM: BT-474, 0.045 μM; for cytotoxicity at 0.13 µM: BT-474, 0.13 μM; for cytotoxicity at 0.41 µM: BT-474, 0.41 μM; for cytotoxicity at 1.23 µM: BT-474, 1.23 μM; for cytotoxicity at 3.7 µM: BT-474, 3.7 μM; for cytotoxicity at 11.11 µM: BT-474, 11.11 μM; for cytotoxicity at 33.33 µM: BT-474, 33.33 μM; for cytotoxicity at 100 µM: BT-474, 100 μM
Summary of the method: (§1)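 Cells seeded at ~10,000/well in RPMI-1640 with 10 % newborn calf serum, grown 24 h, then exposed to compounds for 72 h at 37 °C, 5 % CO2. Viability read by MTT (4 h), formazan dissolved in propanol, absorbance at 490 nm.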

[2] = In vitro cytotoxicity by MTT assay, NCI-H226; type: cell-based; details: human, NCI-H226 lung cancer cells, 0.015 μM, read-out: % Cytotoxicity (100 − % cell survival) of NCI-H226 cell line
Summary of the method: as §1

[3] = test system: NCI-H226 (lung cancer cell line); experiment: In vitro cytotoxicity by MTT assay, NCI-H226; type: cell-based; details: Homo sapiens, 72 h, read-out: % Cytotoxicity (100 − % cell survival) of NCI-H226 cell line; for cytotoxicity at 0.005 µM: NCI-H226, 0.005 μM; for cytotoxicity at 0.045 µM: NCI-H226, 0.045 μM; for cytotoxicity at 0.13 µM: NCI-H226, 0.13 μM; for cytotoxicity at 0.41 µM: NCI-H226, 0.41 μM; for cytotoxicity at 1.23 µM: NCI-H226, 1.23 μM; for cytotoxicity at 3.7 µM: NCI-H226, 3.7 μM; for cytotoxicity at 11.11 µM: NCI-H226, 11.11 μM; for cytotoxicity at 33.33 µM: NCI-H226, 33.33 μM; for cytotoxicity at 100 µM: NCI-H226, 100 μM
Summary of the method: as §1

[4] = In vitro cytotoxicity by MTT assay, HEK 293; type: cell-based, human; details: human, HEK 293 cells, read-out: % cytotoxicity (100 − % cell survival) of HEK 293 cell line
Summary of the method: as §1

Row | SMILES | cytotoxicity at 0.005 µM [1] [%] | cytotoxicity at 0.015 µM [1] [%] | cytotoxicity at 0.045 µM [1] [%] | cytotoxicity at 0.13 µM [1] [%] | cytotoxicity at 0.41 µM [1] [%] | cytotoxicity at 1.23 µM [1] [%] | cytotoxicity at 3.7 µM [1] [%] | cytotoxicity at 11.11 µM [1] [%] | cytotoxicity at 33.33 µM [1] [%] | cytotoxicity at 100 µM [1] [%] | cytotoxicity at 72 h, 0.015 µM [2] [%] | cytotoxicity at 0.005 µM [3] [%] | cytotoxicity at 0.045 µM [3] [%] | cytotoxicity at 0.13 µM [3] [%] | cytotoxicity at 0.41 µM [3] [%] | cytotoxicity at 1.23 µM [3] [%] | cytotoxicity at 3.7 µM [3] [%] | cytotoxicity at 11.11 µM [3] [%] | cytotoxicity at 33.33 µM [3] [%] | cytotoxicity at 100 µM [3] [%] | other results
1 | Nc1ccc(S(=O)(=O)Nc2nnc(S(=O)(=O)NC(=O)c3ccccc3N)s2)cc1 [Compound 7b] | 27.4 | 28.1 | 29.5 | 30.2 | 31.4 | 32.2 | 33.3 | 34.6 | 35.5 | 36.6 | 33.6 | 33.5 | 35.5 | 37 | 37.4 | 38.8 | 39.1 | 40.6 | 41.1 | 42.4 | cytotoxicity at 72 h, 0.005 µM [4]: 37.8%; cytotoxicity at 72 h, 0.015 µM [4]: 39.2%; cytotoxicity at 72 h, 0.045 µM [4]: 40.5%; cytotoxicity at 72 h, 0.13 µM [4]: 44%; cytotoxicity at 72 h, 0.41 µM [4]: 45.3%; cytotoxicity at 72 h, 1.23 µM [4]: 46.5%; cytotoxicity at 72 h, 3.7 µM [4]: 47.8%; cytotoxicity at 72 h, 11.11 µM [4]: 48.2%; cytotoxicity at 72 h, 33.33 µM [4]: 50.7%; cytotoxicity at 72 h, 100 µM [4]: 51.9%
2 | Nc1ccc(C(=O)NS(=O)(=O)c2nnc(NS(=O)(=O)c3ccc(N)cc3)s2)cc1 [Compound 7c] | 18.8 | 19.4 | 19.8 | 20.1 | 21 | 22.8 | 24.2 | 25.7 | 26.4 | 27.9 | 34 | 33.2 | 34.8 | 36.6 | 37.8 | 38 | 38.2 | 38.6 | 38.9 | 40.3 | cytotoxicity at 72 h, 0.005 µM [4]: 36.5%; cytotoxicity at 72 h, 0.015 µM [4]: 38.2%; cytotoxicity at 72 h, 0.045 µM [4]: 40.6%; cytotoxicity at 72 h, 0.13 µM [4]: 42.7%; cytotoxicity at 72 h, 0.41 µM [4]: 43.4%; cytotoxicity at 72 h, 1.23 µM [4]: 45.3%; cytotoxicity at 72 h, 3.7 µM [4]: 47.1%; cytotoxicity at 72 h, 11.11 µM [4]: 49.1%; cytotoxicity at 72 h, 33.33 µM [4]: 49.2%; cytotoxicity at 72 h, 100 µM [4]: 49.9%
3 | Nc1ccc(S(=O)(=O)Nc2nnc(S(=O)(=O)NC(=O)c3ccccc3O)s2)cc1 [Compound 7d] | 28.5 | 29.3 | 30.6 | 31.9 | 33.1 | 34.4 | 35.7 | 36.1 | 38 | 38.9 | 34.1 | 33.7 | 34.6 | 35.2 | 35.7 | 35.4 | 36 | 37.9 | 38.5 | 38.9 | cytotoxicity at 72 h, 0.005 µM [4]: 18.9%; cytotoxicity at 72 h, 0.015 µM [4]: 19.9%; cytotoxicity at 72 h, 0.045 µM [4]: 20.3%; cytotoxicity at 72 h, 0.13 µM [4]: 22.2%; cytotoxicity at 72 h, 0.41 µM [4]: 24.1%; cytotoxicity at 72 h, 1.23 µM [4]: 25.3%; cytotoxicity at 72 h, 3.7 µM [4]: 26.6%; cytotoxicity at 72 h, 11.11 µM [4]: 27.2%; cytotoxicity at 72 h, 33.33 µM [4]: 29%; cytotoxicity at 72 h, 100 µM [4]: 29.6%
4 | Nc1ccc(S(=O)(=O)Nc2nnc(S(=O)(=O)NC(=O)c3ccc([N+](=O)[O-])cc3)s2)cc1 [Compound 7e] | 43.9 | 44.2 | 45.4 | 46.3 | 47.1 | 47.6 | 48.5 | 49.1 | 50.4 | 51.2 | 30 | 29 | 30.5 | 31.8 | 33.5 | 34.5 | 34.9 | 35.5 | 35.8 | 36 | cytotoxicity at 72 h, 0.005 µM [4]: 26.9%; cytotoxicity at 72 h, 0.015 µM [4]: 29%; cytotoxicity at 72 h, 0.045 µM [4]: 30.2%; cytotoxicity at 72 h, 0.13 µM [4]: 32.1%; cytotoxicity at 72 h, 0.41 µM [4]: 34.7%; cytotoxicity at 72 h, 1.23 µM [4]: 35.5%; cytotoxicity at 72 h, 3.7 µM [4]: 36.4%; cytotoxicity at 72 h, 11.11 µM [4]: 38.1%; cytotoxicity at 72 h, 33.33 µM [4]: 38.8%; cytotoxicity at 72 h, 100 µM [4]: 39.8%
5 | Nc1ccc(S(=O)(=O)Nc2nnc(S(=O)(=O)NC(=O)c3ccc(Cl)cc3)s2)cc1 [Compound 7g] | 27.3 | 28.4 | 30 | 31.3 | 32.7 | 33.2 | 34.7 | 37.7 | 38.5 | 40.1 | 32.8 | 30.7 | 33.6 | 35.3 | 35.7 | 36.1 | 36.3 | 37.1 | 38.7 | 39 | cytotoxicity at 72 h, 0.005 µM [4]: 29.1%; cytotoxicity at 72 h, 0.015 µM [4]: 31.2%; cytotoxicity at 72 h, 0.045 µM [4]: 33.3%; cytotoxicity at 72 h, 0.13 µM [4]: 35.1%; cytotoxicity at 72 h, 0.41 µM [4]: 35.9%; cytotoxicity at 72 h, 1.23 µM [4]: 36.5%; cytotoxicity at 72 h, 3.7 µM [4]: 37.2%; cytotoxicity at 72 h, 11.11 µM [4]: 38.1%; cytotoxicity at 72 h, 33.33 µM [4]: 40.3%; cytotoxicity at 72 h, 100 µM [4]: 42.9%
6 | NS(=O)(=O)c1ccc(S(=O)(=O)Nc2cccc3c(Cl)c[nH]c23)cc1 [ISL, indisulam, reference compound] | 42.2 | 45 | 46.4 | 49 | 50.8 | 52.9 | 54.7 | 62.5 | 66.1 | 73.5 | 28.4 | 26.4 | 30.2 | 31.1 | 33 | 34.1 | 36.5 | 38.6 | 44.7 | 59.3 | cytotoxicity at 72 h, 0.005 µM [4]: 42.3%; cytotoxicity at 72 h, 0.015 µM [4]: 46.9%; cytotoxicity at 72 h, 0.045 µM [4]: 48.6%; cytotoxicity at 72 h, 0.13 µM [4]: 50.1%; cytotoxicity at 72 h, 0.41 µM [4]: 51.1%; cytotoxicity at 72 h, 1.23 µM [4]: 52.2%; cytotoxicity at 72 h, 3.7 µM [4]: 55.4%; cytotoxicity at 72 h, 11.11 µM [4]: 57.8%; cytotoxicity at 72 h, 33.33 µM [4]: 61.2%; cytotoxicity at 72 h, 100 µM [4]: 69.4%
